Measurements from patent US20130303532A1, “IMIDAZOPYRAZINES FOR USE AS MPS-1 AND TKK INHIBITORS IN THE TREATMENT HYPERPROLIFERATIVE DISORDERS” (BAYER INTELLECTUAL PROPERTY GmbH, priority 2010, published 2013).
Read-outs that look alike come from different tables or passages of the source.

Target: T1, human kinase Mps-1 (Homo sapiens, UniProt P33981)
T1 construct: N-terminally GST-tagged human full length recombinant Mps-1 kinase; GST (N); purchased Invitrogen, Karslruhe, Germany PV4071
T1 sequence (P33981 1-857): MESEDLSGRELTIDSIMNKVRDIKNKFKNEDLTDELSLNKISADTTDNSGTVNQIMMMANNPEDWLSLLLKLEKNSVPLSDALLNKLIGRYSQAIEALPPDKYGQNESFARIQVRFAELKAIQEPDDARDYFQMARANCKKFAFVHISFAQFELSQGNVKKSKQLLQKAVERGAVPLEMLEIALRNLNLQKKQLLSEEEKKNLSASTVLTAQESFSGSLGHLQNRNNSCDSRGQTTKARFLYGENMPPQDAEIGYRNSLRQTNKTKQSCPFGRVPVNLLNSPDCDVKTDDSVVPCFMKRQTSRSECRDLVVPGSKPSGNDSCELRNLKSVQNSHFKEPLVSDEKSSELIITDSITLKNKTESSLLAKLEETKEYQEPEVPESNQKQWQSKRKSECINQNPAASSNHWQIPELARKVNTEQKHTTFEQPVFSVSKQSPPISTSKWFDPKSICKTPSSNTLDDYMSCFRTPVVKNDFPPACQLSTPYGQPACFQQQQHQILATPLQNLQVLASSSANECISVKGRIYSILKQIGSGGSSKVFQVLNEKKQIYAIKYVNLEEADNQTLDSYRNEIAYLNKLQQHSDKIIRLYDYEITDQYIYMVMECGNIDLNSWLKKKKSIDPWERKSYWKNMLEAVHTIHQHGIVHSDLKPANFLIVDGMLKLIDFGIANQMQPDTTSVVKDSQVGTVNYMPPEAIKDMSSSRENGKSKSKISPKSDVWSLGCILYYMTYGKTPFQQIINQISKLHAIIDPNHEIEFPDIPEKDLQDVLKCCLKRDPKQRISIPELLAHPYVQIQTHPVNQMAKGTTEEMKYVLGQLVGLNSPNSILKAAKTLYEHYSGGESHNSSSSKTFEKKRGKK
Assay: Mps-1 kinase assay (TR-FRET)
Assay type: biochemical
Conditions: N-terminally GST-tagged human full length recombinant Mps-1, 10 μM ATP, 1 μM biotinylated peptide substrate, 60 min at 22° C.

**Q.** `Cn1cc(CNc2nccn3c(-c4ccc(C(=O)NC5CC5)c(O)c4)cnc23)cn1` [Example 7-85, N-cyclopropyl-2-hydroxy-4-(8-{[(1-methyl-1H-pyrazol-4-yl)methyl]amino}imi-dazo[1,2-a]pyrazin-3-yl)benzamide] was tested. Which IC50 (Mps1 IC50 [nM]) did it give?
**A.** The IC50 was 105 nM.

**Q.** Which IC50 (Mps1 IC50 [nM]) does the source give for `CCOC(C)CNc1nccn2c(-c3ccc(C(=O)NC4CC4)c(O)c3)cnc12` (centres unmarked) [Example 7-86, N-cyclopropyl-4-{8-[(2-ethoxypropyl)amino]imi-dazo[1,2-a]pyrazin-3-yl}-2-hydroxybenzamide] here?
**A.** The IC50 was 268 nM.

**Q.** How did the IC50 (Mps1 IC50 [nM]) turn out when `CC(C)(O)CNc1nccn2c(-c3ccc(C(=O)NC4CC4)c(O)c3)cnc12` [Example 7-87, N-cyclopropyl-2-hydroxy-4-{8-[(2-hydroxy-2-methylpropyl)amino]imi-dazo[1,2-a]pyrazin-3-yl}benzamide] was run?
**A.** The IC50 was 160 nM.

**Q.** For `O=C(NC1CC1)c1ccc(-c2cnc3c(NCc4ccc(Cl)s4)nccn23)cc1O` [Example 7-88, 4-(8-{[(5-chlorothiophen-2-yl)methyl]amino}imi-dazo[1,2-a]pyrazin-3-yl)-N-cyclopropyl-2-hydroxybenzamide], which IC50 (Mps1 IC50 [nM]) is on record?
**A.** Its IC50 is 91.3 nM.

**Q.** `O=C(NC1CC1)c1ccc(-c2cnc3c(NCC4CCCCO4)nccn23)cc1O` (centres unmarked) [Example 7-89, N-cyclopropyl-2-hydroxy-4-{8-[(tetrahydro-2H-pyran-2-ylmethyl)amino]imi-dazo[1,2-a]pyrazin-3-yl}benzamide] was tested. Which IC50 (Mps1 IC50 [nM]) did it give?
**A.** The IC50 was 247 nM.

**Q.** With `CCCNc1nccn2c(-c3ccc(C(=O)NC4CC4)c(C)c3)cnc12` [Example 7-90, N-cyclopropyl-2-methyl-4-[8-(propylamino)imidazo[1,2-a]pyrazin-3-yl]benzamide] as the compound, how does the IC50 (read-out: Mps1 IC50) read?
**A.** The IC50 was 29.7 nM.

**Q.** How did the IC50 (Mps1 IC50 [nM]) turn out when `Cc1cc(-c2cnc3c(NCCO)nccn23)ccc1C(=O)NC1CC1` [Example 7-91, N-cyclopropyl-4-{8-[(2-hydroxyethyl)amino]imi-dazo[1,2-a]pyrazin-3-yl}-2-methylbenzamide] was run?
**A.** The IC50 was 363 nM.

**Q.** `Cc1cc(-c2cnc3c(NCCCN4CCOCC4)nccn23)ccc1C(=O)NC1CC1` [Example 7-92, N-cyclopropyl-2-methyl-4-(8-{[3-(morpholin-4-yl)propyl]amino}imi-dazo[1,2-a]pyrazin-3-yl)benzamide] was tested. Which IC50 (Mps1 IC50 [nM]) did it give?
**A.** The IC50 was 389 nM.

**Q.** For `Cc1cc(-c2cnc3c(NCCC(C)C)nccn23)ccc1C(=O)NC1CC1` [Example 7-93, N-cyclopropyl-2-methyl-4-{8-[(3-methylbutyl)amino]imi-dazo[1,2-a]pyrazin-3-yl}benzamide], which IC50 (Mps1 IC50 [nM]) is on record?
**A.** The IC50 was 13.2 nM.

**Q.** How did the IC50 (Mps1 IC50 [nM]) turn out when `Cc1cc(-c2cnc3c(NCC4CCCO4)nccn23)ccc1C(=O)NC1CC1` (centres unmarked) [Example 7-94, N-cyclopropyl-2-methyl-4-{8-[(tetrahydrofuran-2-ylmethyl)amino]imi-dazo[1,2-a]pyrazin-3-yl}benzamide] was run?
**A.** Its IC50 is 80.8 nM.

**Q.** For `Cc1cc(-c2cnc3c(NCCCN4CCCC4=O)nccn23)ccc1C(=O)NC1CC1` [Example 7-95, N-cyclopropyl-2-methyl-4-(8-{[3-(2-oxopyrrolidin-1-yl)propyl]amino}imi-dazo[1,2-a]pyrazin-3-yl)benzamide], which IC50 (Mps1 IC50 [nM]) is on record?
**A.** Its IC50 is 562 nM.

**Q.** Which IC50 (Mps1 IC50 [nM]) does the source give for `COCCNc1nccn2c(-c3ccc(C(=O)NC4CC4)c(C)c3)cnc12` [Example 7-96, N-cyclopropyl-4-{8-[(2-methoxyethyl)amino]imi-dazo[1,2-a]pyrazin-3-yl}-2-methylbenzamide] here?
**A.** Its IC50 is 229 nM.

**Q.** Which IC50 (Mps1 IC50 [nM]) does the source give for `Cc1cc(-c2cnc3c(NCc4ccccc4F)nccn23)ccc1C(=O)NC1CC1` [Example 7-97, N-cyclopropyl-4-{8-[(2-fluorobenzyl)amino]imi-dazo[1,2-a]pyrazin-3-yl}-2-methylbenzamide] here?
**A.** The IC50 was 31.6 nM.

**Q.** For `Cc1cc(-c2cnc3c(NCc4ccc(F)cc4)nccn23)ccc1C(=O)NC1CC1` [Example 7-98, N-cyclopropyl-4-{8-[(4-fluorobenzyl)amino]imi-dazo[1,2-a]pyrazin-3-yl}-2-methylbenzamide], which IC50 (Mps1 IC50 [nM]) is on record?
**A.** The IC50 was 39.6 nM.

**Q.** With `Cc1cc(-c2cnc3c(NCCCCO)nccn23)ccc1C(=O)NC1CC1` [Example 7-99, N-cyclopropyl-4-{8-[(4-hydroxybutyl)amino]imi-dazo[1,2-a]pyrazin-3-yl}-2-methylbenzamide] as the compound, how does the IC50 (Mps1 IC50 [nM]) read?
**A.** Its IC50 is 70.8 nM.

**Q.** `Cc1cc(-c2cnc3c(NCC(F)(F)F)nccn23)ccc1C(=O)NC1CC1` [Example 7-100] was tested. Which IC50 (Mps1 IC50 [nM]) did it give?
**A.** Its IC50 is 217 nM.

**Q.** With `Cc1cc(-c2cnc3c(NCc4ccccc4)nccn23)ccc1C(=O)NC1CC1` [Example 7-101, 4-[8-(benzylamino)imidazo[1,2-a]pyrazin-3-yl]-N-cyclopropyl-2-methylbenzamide] as the compound, how does the IC50 (read-out: Mps1 IC50) read?
**A.** The IC50 was 34.1 nM.

**Q.** With `Cc1cc(-c2cnc3c(NCc4cccs4)nccn23)ccc1C(=O)NC1CC1` [Example 7-102, N-cyclopropyl-2-methyl-4-{8-[(thiophen-2-ylmethyl)amino]imi-dazo[1,2-a]pyrazin-3-yl}benzamide] as the compound, how does the IC50 (Mps1 IC50 [nM]) read?
**A.** Its IC50 is 18.7 nM.

**Q.** With `CCNc1nccn2c(-c3ccc(C(=O)NC4CC4)c(C)c3)cnc12` [Example 7-103, N-cyclopropyl-4-[8-(ethylamino)imidazo[1,2-a]pyrazin-3-yl]-2-methylbenzamide] as the compound, how does the IC50 (read-out: Mps1 IC50) read?
**A.** Its IC50 is 145 nM.

**Q.** How did the IC50 (Mps1 IC50 [nM]) turn out when `Cc1cc(-c2cnc3c(NCCCO)nccn23)ccc1C(=O)NC1CC1` [Example 7-104, N-cyclopropyl-4-{8-[(3-hydroxypropyl)amino]imi-dazo[1,2-a]pyrazin-3-yl}-2-methylbenzamide] was run?
**A.** The IC50 was 124 nM.

**Q.** How did the IC50 (read-out: Mps1 IC50) turn out when `CCCCNc1nccn2c(-c3ccc(C(=O)NC4CC4)c(C)c3)cnc12` [Example 7-105, 4-[8-(butylamino)imidazo[1,2-a]pyrazin-3-yl]-N-cyclopropyl-2-methylbenzamide] was run?
**A.** Its IC50 is 18.5 nM.

**Q.** For `CC(=O)NCCNc1nccn2c(-c3ccc(C(=O)NC4CC4)c(C)c3)cnc12` [Example 7-106], which IC50 (Mps1 IC50 [nM]) is on record?
**A.** Its IC50 is 1470 nM.

**Q.** `Cc1cc(-c2cnc3c(NCC4CC4)nccn23)ccc1C(=O)NC1CC1` [Example 7-107, N-cyclopropyl-4-{8-[(cyclopropylmethyl)ami-no]imidazo[1,2-a]pyrazin-3-yl}-2-methylbenzamide] was tested. Which IC50 (read-out: Mps1 IC50) did it give?
**A.** The IC50 was 18.8 nM.

**Q.** How did the IC50 (Mps1 IC50 [nM]) turn out when `Cc1cc(-c2cnc3c(NCc4cccnc4)nccn23)ccc1C(=O)NC1CC1` [Example 7-108, N-cyclopropyl-2-methyl-4-{8-[(pyridin-3-ylmethyl)amino]imi-dazo[1,2-a]pyrazin-3-yl}benzamide] was run?
**A.** The IC50 was 123 nM.

**Q.** Which IC50 (Mps1 IC50 [nM]) does the source give for `Cc1cc(-c2cnc3c(NCc4ccncc4)nccn23)ccc1C(=O)NC1CC1` [Example 7-109, N-cyclopropyl-2-methyl-4-{8-[(pyridin-4-ylmethyl)amino]imi-dazo[1,2-a]pyrazin-3-yl}benzamide] here?
**A.** Its IC50 is 166 nM.

**Q.** With `Cc1cc(-c2cnc3c(NCc4ccco4)nccn23)ccc1C(=O)NC1CC1` [Example 7-110, N-cyclopropyl-4-{8-[(furan-2-ylmethyl)amino]imi-dazo[1,2-a]pyrazin-3-yl}-2-methylbenzamide] as the compound, how does the IC50 (Mps1 IC50 [nM]) read?
**A.** The IC50 was 28.1 nM.

**Q.** Which IC50 (Mps1 IC50 [nM]) does the source give for `Cc1cc(-c2cnc3c(NCCC#N)nccn23)ccc1C(=O)NC1CC1` [Example 7-111, 4-{8-[(2-cyanoethyl)amino]imi-dazo[1,2-a]pyrazin-3-yl}-N-cyclopropyl-2-methylbenzamide] here?
**A.** The IC50 was 49.7 nM.

**Q.** `Cc1cc(-c2cnc3c(NCC(F)(F)C(F)(F)F)nccn23)ccc1C(=O)NC1CC1` [Example 7-112, N-cyclopropyl-2-methyl-4-{8-[(2,2,3,3,3-pentafluoropropyl)ami-no]imidazo[1,2-a]pyrazin-3-yl}benzamide] was tested. Which IC50 (read-out: Mps1 IC50) did it give?
**A.** Its IC50 is 81.6 nM.

**Q.** For `Cc1cc(-c2cnc3c(NCC(O)C(F)(F)F)nccn23)ccc1C(=O)NC1CC1` (centres unmarked) [Example 7-113, N-cyclopropyl-2-methyl-4-{8-[(3,3,3-trifluoro-2-hydroxypropyl)amino]imi-dazo[1,2-a]pyrazin-3-yl}benzamide], which IC50 (Mps1 IC50 [nM]) is on record?
**A.** The IC50 was 36.7 nM.
